# Measurements published in patent publication US9296710B2, “Bicyclo (3.1.0) hexane-2, 6-dicarboxylic acid derivatives as mGlu2 receptor agonist” (Eli Lilly and Company, priority 2011, dated 2016).
# Counter-ions that a name gives are not always drawn.
# Key:
# [1] = system: PCP-induced hyperlocomotor activity in mice; assay: Reversal of Phencyclidine (PCP)-Induced Hyperlocomotor Activity in Mice; assay type: in vivo, mouse
# From the text: This assay for Reversal of Phencyclidine (PCP)-Induced Hyperlocomotor Activity in Mice is run substantially as the Reversal of Phencyclidine (PCP)-Induced Hyperlocomotor Activity in Rats assay provided above, using mice instead of rats and with the changes noted below.
# Motor activity is monitored by placing individual male, ICR (CD-1), (Harlan, Indianapolis, Ind.) mice in transparent, plastic shoe-box cages of the dimensions 45×25×20 cm, with 0.5 cm depth of wood chips as bedding, and plastic lid on top of the cage. Motor monitors (Kinder Scientific) consist of a rectangular rack of 12 photobeams arranged in an 8×4 formation, (or a high density grouping of 22 in a 15×7 pattern) at a height of 2.5 cm. The shoe box cage is placed inside of these racks, with the racks on a 3 foot high tabletop in an isolated room. A compound of the present invention is dosed (intraperitoneal route, non-prodrug) usually within a range of 0.3-30 mg/kg; though higher doses may be used, 30 minutes prior to a 7.5 mg/kg challenge dose of phencyclidine (PCP). On the test day, mice are placed in the test cage and allowed to acclimate for 45 minutes prior to PCP challenge; mice are monitored for an additional 60 minutes following PCP administration.
# Power analyses have determined that 7-8 mice per group are needed to have appropriate statistical power for detecting treatment differences (power=0.8).
# [2] = system: immobility in forced swim test in mice; assay: Forced Swim Test in Rodents (mice); assay type: in vivo, mouse; settings: for ED60 (60% of the amount of immobility relative to vehicle controls): intraperitoneal dosing 60 min prior to testing
# Description: In this assay, mechanisms with purported antidepressant-like activity decrease immobility in a brief inescapable forced swim episode.
# The forced-swim test was conducted in mice (male, NIH-Swiss mice, 20-25 g, Harlan Sprague-Dawley, Indianapolis, Ind.). Mice are placed in clear plastic cylinders (diameter 10 cm; height: 25 cm) filled to 6 cm with 22-25° C. water for six min. The duration of immobility is recorded during the last 4 min of a six-minute trial. The compounds of Examples 2, 3, 8, 11, and 12 are tested following intraperitoneal dosing, 60 min prior to testing. Imipramine is used as a positive control for these studies. Compounds are formulated in a water vehicle, with minimal NaOH added. The amount of time spent immobile (defined as movements only necessary to keep the subject's head above water) is the dependent measure and recorded by an observer blinded to the drug treatment of the subjects. Data are analyzed by post-hoc Dunnett's test with alpha level set at 0.05.
# [3] = In Vitro Intestinal Prodrug Hydrolysis Assay; assay type: in vitro ADME; settings: 1 h, 10 µM, pH 7.4
# Description: Frozen human duodenum intestinal homogenates (1:2 tissue:buffer ratio using 100 mM Tris Phosphate buffer, pH 7.4) are obtained from Celsius In Vitro Technologies (Baltimore, Md.) that were both phenylmethylsulphonylfluoride (PMSF) and EDTA free.
# Each lot of human duodenum is obtained from a single donor and the intestine is scraped and the sections are frozen separate. All original tissue collections are performed at 4° C. and immediately frozen at −70° C.
# Hydrolysis of the positive control, Internal Prodrug Compound A to Internal Compound Drug A, run in every batch averaged 75.3% (n=20). Final values are then normalized relative to the formation of Internal Compound Drug A.
# PepT1 = target: T1, PepT1 (Homo sapiens, UniProt P46059); assay: In Vitro PepT1 GlySar Inhibition Screen; assay type: cell-based; settings: prodrug at 5 mM, pH 6.0, PepT1 transiently transfected HeLa cells, 5 μM [14C]Gly-Sar and 20 μM cold Gly-Sar; read-out: Mean GlySar Uptake Inhibition %
# T1 construct: expressed in transfected cells; host or cells: HeLa cells (ATCC), transient transfection with FUGENE6
# T1 sequence (P46059 1-708): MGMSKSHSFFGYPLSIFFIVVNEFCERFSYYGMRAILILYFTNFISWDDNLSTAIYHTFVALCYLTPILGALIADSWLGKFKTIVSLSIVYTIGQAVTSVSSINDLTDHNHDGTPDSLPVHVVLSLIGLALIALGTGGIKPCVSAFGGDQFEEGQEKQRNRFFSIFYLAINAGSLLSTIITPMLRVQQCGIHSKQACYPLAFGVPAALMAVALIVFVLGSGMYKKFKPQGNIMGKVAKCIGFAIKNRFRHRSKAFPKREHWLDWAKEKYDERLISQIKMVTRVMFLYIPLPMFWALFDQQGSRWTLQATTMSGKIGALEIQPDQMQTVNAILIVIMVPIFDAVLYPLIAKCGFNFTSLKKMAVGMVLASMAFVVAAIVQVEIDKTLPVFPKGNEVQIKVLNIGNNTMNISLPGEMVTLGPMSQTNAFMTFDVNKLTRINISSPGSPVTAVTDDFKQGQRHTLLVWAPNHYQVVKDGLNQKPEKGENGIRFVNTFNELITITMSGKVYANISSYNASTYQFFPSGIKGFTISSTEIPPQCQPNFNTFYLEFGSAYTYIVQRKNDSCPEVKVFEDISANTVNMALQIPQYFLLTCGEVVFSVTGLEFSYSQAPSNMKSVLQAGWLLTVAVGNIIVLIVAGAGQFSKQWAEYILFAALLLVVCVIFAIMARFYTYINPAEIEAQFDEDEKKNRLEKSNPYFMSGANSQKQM
# Description: PepT1 assays are established to examine the ability of the amino acid prodrug compounds to interact with the intestinal absorption transporter PepT1.
# HeLa cells, derived from human cancer cells, (American Type Culture Collection) are grown in Hyclone Medium (Invitrogen, Cat# SH30243) containing 10% fetal bovine serum (FBS), 0.1 mM non essential amino acids (NEAA), and 100 units/mL penicillin with 100 μg/mL streptomycin at 37° C. in a 5% CO2 humidified atmosphere. The cell line is used for up to 40 passages and then discarded. Frozen cells in 1 mL vials are thawed in water bath for 1-2 minutes and added to 5 mL of cell medium at 37° C. Each of the T-flasks is provided with 8.5 mL of the fresh medium and 1.5 mL of the cell stock. Cells are passaged twice during a week. […] Each new flask receives a combination of 8.5 mL of fresh medium and 1.5 mL of cell stock, in order to obtain 1:6 cell dilution. Cells are incubated at 37° C., until ready for the uptake study.
# Cells that are 70-80% confluent in the T-flasks are plated 1 day prior to the transfection procedure. The flask with the cell stock is treated with PBS-EDTA and trypsin to detach the cells, and transfection medium is used from this point. Transfection medium consists of Dulbecco's Modified Eagle Medium (DMEM)+NEAA. To each well, 0.5 mL of the cell mixture is added (1.3×10^5 is the desired cell concentration) and the cells are incubated at 37° C. overnight. Twenty four hours before the assay, cells are transfected with PEPT1. Transfection mixture is prepared by mixing 600 μL of serum free transfection medium, 18 μL of FUGENE6® (Roche Diagnostics), and 11 μg of the PepT1 DNA. The transfection reagent-DNA complex is incubated for 20 minutes and 24 μL of the reagent-DNA complex is added to each well.
# Inhibition of PEPT1-mediated [glycyl-1-2-^14C]Glyclysarcosine (GlySar) uptake activity is measured in the cells cultured in the 24-well plates 24-hours post transfection as previously published (Zhang et al. 2004. J. Pharm. Exper Ther. 310:437-445). To measure the ability of a compound of the present invention to inhibit the uptake of [^14C]Gly-Sar, prodrug compounds are incubated with 80 to 90% confluent PepT1 transiently transfected HeLa cells at 5 mM in pH 6.0 uptake medium in the presence of 5 μM [^14C]Gly-Sar (Moravek Biochemicals) and 20 μM cold Gly-Sar. Uptake media consists of 140 mM NaCl, 5.4 mM KCl, 1.8 mM CaCl2, 0.8 mM MgSO4, 5 mM Glucose, 25 mM tris(hydroxymethyl)aminomethane buffer (TRIS). The solution is then brought to pH 6.0 using 2-(N-morpholino)ethanesulfonic acid. The incubation volume is 500 μL and is performed at room temperature for 3 minutes. To stop the uptake at the conclusion of the incubation time, the uptake media is aspirated off of the cell monolayer and 500 μL of ice cold PBS added to the well. The cells are washed 3 times with 500 μL of room temperature PBS without Ca^+2 and Mg^+2. The cells are then lysed with 300 μL of 1% TRITON® X100 H2O solution. A 200 μL aliquot is removed and radioactivity is determined by liquid scintillation counting to measure the [^14C]Gly-Sar present in each of the incubation wells. A no inhibitor control is established and the percent inhibition of each prodrug is calculated with respect to this control.
# [4] = system: stress-induced hyperthermia in rats; assay: Attenuation of Stress-Induced Hyperthermia in Rats; assay type: in vivo, rat; settings: i.p., 3 mg/kg
# From the text: In many anxiety disorders, hyperthermia occurs as part of the pathology and is considered a symptom of the disease. Compounds which attenuate stress-induced hyperthermia in animals are believed to be useful in treating anxiety disorders in humans. Generalized anxiety disorder is an example of such disorders that may be treated with such compounds. The conventional and minimally-invasive method for analyzing stress-induced hyperthermia is by measuring body temperature, and stress-induced increases in body temperature, via rectal thermometer. Male Fischer F-344 rats (Harlan, Indianapolis, Ind., USA) weighing between 275-350 g are tested. All animals are individually-housed with food and automated water available ad libitum, and maintained on a 12 h light/dark cycle (lights on at 06:00) Animals are fasted for approximately 12-18 hours before the experiment, which is conducted during the light phase. Rats are dosed one hour prior to the experiment by intraperitoneal (i.p.) route of administration in a dose volume of 1 mL/kg. The vehicle used was water with enough NaOH added to achieve a pH between 5-7. The mGluR5 antagonist MTEP (3-[(2-methyl-1,3-thiazol-4-yl)ethynyl]pyridine) and mGlu2/3 agonist LY317206 were used as quality controls, given that they produced reliable efficacy in this model Immediately following dosing, rats are returned to their home cage, and the experimenter turns off the lights and leaves the room. The dosing room is darkened for the remainder of the 1-hr pretreatment period.
# After the pretreatment period, rats are taken individually to a brightly lit adjacent room where baseline body temperatures are determined by insertion of a rectal probe lubricated with mineral oil. Body temperature is assessed using a […] BAT-12® Microprobe Thermometer with a […] RET-2® rat rectal probe (Physitemp Instruments Inc., Clifton, N.J., USA). The probe is inserted approximately 2 cm into the rectum, to measure the core body temperature (this is the baseline body temperature, T1, in degrees Celsius). Ten minutes later a second body temperature measurement is recorded (T2). […]
smiles,measurement,setting,value
"Cl.N[C@@]1(C(=O)O)C[C@@H](Sc2nnc(C(F)F)[nH]2)[C@H]2[C@H](C(=O)O)[C@H]21 [Example 8, (1R,2S,4R,5R,6R)-2-Amino-4-(5-difluoromethyl-1H-[1,2,4]triazol-3-ylsulfanyl)-bicyclo[3.1.0]hexane-2,6-dicarboxylic acid hydrochloride]",reversal of PCP-induced locomotor activity,[1]; single dose of 10 mg/kg,52%
same,ED60 (60% of the amount of immobility relative to vehicle controls),[2],7.95 mg/kg
"N[C@@]1(C(=O)O)C[C@H](Sc2c[nH]nn2)[C@H]2[C@H](C(=O)O)[C@H]21 [Example 11, (1R,2S,4S,5R,6R)-2-Amino-4-(1H-triazol-4-ylsulfanyl)bicyclo[3.1.0] hexane-2,6-dicarboxylic acid hydrochloride]",ED50,"[1]; Mus musculus, i.p. administration, 30 minutes prior to 7.5 mg/kg PCP",1.2 mg/kg
same,"efficacy in forced swim test, second study","[2]; i.p., higher doses (3-30 mg/kg)",efficacy was lost
same,ED60 (60% of the amount of immobility relative to vehicle controls),[2],0.88 mg/kg
"CSCC[C@H](N)C(=O)N[C@@]1(C(=O)O)C[C@@H](Sc2nnc(C(F)(F)F)[nH]2)[C@H]2[C@H](C(=O)O)[C@H]21.Cl [Example 17, (1R,2S,4R,5R,6R)-2-((S)-2-Amino-4-methylsulfanyl-butyrylamino)-4-(5-trifluoromethyl-1H-[1,2,4]triazol-3-ylsulfanyl)-bicyclo[3.1.0]hexane-2,6-dicarboxylic acid hydrochloride]",In Vitro Human Intestinal Hydrolysis % (relative to positive control),[3],63.3%
"Cl.NCC(=O)N[C@@]1(C(=O)O)C[C@@H](Sc2nnc(C(F)(F)F)[nH]2)[C@H]2[C@H](C(=O)O)[C@H]21 [Example 18, (1R,2S,4R,5R,6R)-2-(glycylamino)-4-{[5-(trifluoromethyl)-1H-1,2,4-triazol-3-yl]sulfanyl}bicyclo[3.1.0] hexane-2,6-dicarboxylic acid hydrochloride]",In Vitro Human Intestinal Hydrolysis % (relative to positive control),[3],65.5%
"C[C@H](N)C(=O)N[C@@]1(C(=O)O)C[C@@H](Sc2cn[nH]n2)[C@H]2[C@H](C(=O)O)[C@H]21.Cl [Example 19, (1R,2S,4R,5R,6R)-2-[[(2S)-2-Aminopropanoyl]amino]4-(2H-1,2,3-triazol-4-ylsulfanyl)bicyclo[3.1.0] hexane-2,6-dicarboxylic acid hydrochloride]",In Vitro Human Intestinal Hydrolysis % (relative to positive control),[3],58.1%
"CSCC[C@H](N)C(=O)N[C@@]1(C(=O)O)C[C@@H](Sc2cn[nH]n2)[C@H]2[C@H](C(=O)O)[C@H]21.Cl [Example 21, (1R,2S,4R,5R,6R)-2-((S)-2-Amino-4-methylsulfanyl-butyrylamino)-4-(2H-[1,2,3]triazol-4-ylsulfanyl)-bicyclo[3.1.0]hexane-2,6-dicarboxylic acid hydrochloride]",In Vitro Human Intestinal Hydrolysis % (relative to positive control),[3],63.8%
same,inhibition at 5000 µM,PepT1,57.4%
"Cc1nc(C#Cc2cccnc2)cs1 [MTEP, 3-[(2-methyl-1,3-thiazol-4-yl)ethynyl]pyridine, reference compound]",reduction of stress-induced hyperthermia,[4],53%
